Marks after values point to notes of the source that are not given here.
Columns and labels:
Rat SGLT1 = target: T1, Rat SGLT1 (Rattus norvegicus, UniProt P53790); assay: 14C-AMG uptake in CHOK cells expressing rat SGLT1; format: cell-based; conditions: mean of 2 experiments
T1 construct: expressed in transfected cells; host or cells: CHO-K (CHOK) cells
T1 sequence (P53790 1-665): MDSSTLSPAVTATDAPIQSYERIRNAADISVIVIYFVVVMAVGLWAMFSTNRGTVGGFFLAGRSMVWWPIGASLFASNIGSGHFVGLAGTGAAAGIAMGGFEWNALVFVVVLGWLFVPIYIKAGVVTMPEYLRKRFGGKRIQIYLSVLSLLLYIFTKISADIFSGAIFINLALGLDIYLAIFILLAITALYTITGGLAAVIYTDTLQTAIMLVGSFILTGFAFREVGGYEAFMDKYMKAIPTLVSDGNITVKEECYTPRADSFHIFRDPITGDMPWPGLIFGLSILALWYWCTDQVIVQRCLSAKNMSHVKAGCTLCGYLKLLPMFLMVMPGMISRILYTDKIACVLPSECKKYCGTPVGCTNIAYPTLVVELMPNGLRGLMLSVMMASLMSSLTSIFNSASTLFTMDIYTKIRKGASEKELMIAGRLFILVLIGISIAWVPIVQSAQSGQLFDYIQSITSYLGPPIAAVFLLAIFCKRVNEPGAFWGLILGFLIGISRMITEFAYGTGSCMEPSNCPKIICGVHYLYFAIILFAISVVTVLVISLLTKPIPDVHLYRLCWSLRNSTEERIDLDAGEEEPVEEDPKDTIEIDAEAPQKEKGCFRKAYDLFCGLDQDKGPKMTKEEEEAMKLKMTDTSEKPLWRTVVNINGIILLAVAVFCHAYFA
Description: Cells were seeded into 96-well plates.
All data are presented as mean ± standard error.

[1] = target: T2, glucose transporter 1 (GLUT1) (Rattus norvegicus, UniProt P11167); assay: 3H-2-deoxy-glucose uptake in L6 myoblast cells; format: cell-based
T2 construct: endogenous in cells; host or cells: L6 rat skeletal muscle myoblasts
T2 sequence (P11167 1-492): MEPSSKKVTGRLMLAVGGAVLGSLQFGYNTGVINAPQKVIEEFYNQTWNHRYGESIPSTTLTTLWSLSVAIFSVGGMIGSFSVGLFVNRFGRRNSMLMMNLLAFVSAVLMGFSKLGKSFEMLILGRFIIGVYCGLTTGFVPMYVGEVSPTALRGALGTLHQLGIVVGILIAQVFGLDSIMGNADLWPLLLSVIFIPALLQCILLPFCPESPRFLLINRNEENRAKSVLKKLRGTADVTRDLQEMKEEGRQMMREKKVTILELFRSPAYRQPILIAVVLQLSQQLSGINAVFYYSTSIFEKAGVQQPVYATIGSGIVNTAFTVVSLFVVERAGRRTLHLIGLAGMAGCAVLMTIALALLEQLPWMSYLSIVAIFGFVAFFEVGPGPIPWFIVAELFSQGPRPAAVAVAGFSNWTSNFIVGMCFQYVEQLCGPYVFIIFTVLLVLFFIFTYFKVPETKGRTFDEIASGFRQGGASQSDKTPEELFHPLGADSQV
Description: Cells were maintained in Dulbecco's modified Eagle's medium containing 5.6 mM glucose supplemented with 10% fetal bovine serum, were seeded in 24-well plates at a density of 3.0×10^5 cells/well and cultured for 24 hours in an atmosphere of 5% CO2 at 37°C. […] The transport reaction was initiated by adding 50 µl of 4.5 mM 2-DG (a substrate for GLUTs)/^3H-2-DG (0.625 µCi) followed by incubation for 15 minutes at room temperature. The 2-DG uptake was halted by aspiration of the incubation mixture. Cells were immediately washed 3 times with ice-cold PBS. Samples were extracted with 0.3 N NaOH, and radioactivity was determined by liquid scintillation (Packard, Boston, Massachusetts, USA).

db/db mice = assay: Single-dose blood glucose lowering in db/db mice; format: in vivo, mouse; conditions: for reduction of BG levels compared with vehicle-treated mice: 1 hour after treatment; for BG level: 6 hours, vehicle 479±3.9
Source text: (§1) Four rodent models were used in these experiments: (1) male C57BL/6J mice fed with a high-fat diet (D-12492 with 60 kcal% fat, Research Diets, Inc, New Jersey, USA) (diet-induced obese, insulin resistantmice [DIO]); (2) male C57BL/ksj-db/db hyperglycemic mice; (3) male Zucker fatty (ZF) obese, insulin resistant rats; and (4) male ZDF obese, hyperglycemic rats. All animals were housed according to standard procedures following a protocol approved by the IACUC in Drug Discovery at Johnson & Johnson Pharmaceutical Research & Development, LLC.
BG levels were monitored at 0, 0.5, 1, 3, 6, and 24 hours after dosing. […] BG levels were monitored weekly, and HbA1c, plasma glucose, and insulin levels were determined at the end of the 4-week treatment. An oral glucose tolerance test (OGTT) ([…] of body weight, given by gavage) was conducted in ZDF rats after 4 weeks of treatment. Blood was sampled at 0, 30, 60, and 120 minutes after glucose challenge from the tail vein for measurement of BG levels using a glucometer (One Touch Ultra, LifeScan, Milpitas, California, USA) and plasma insulin using ELISA method (ALPCO, Salem, New Hampshire, USA).

ZF rats = assay: 3-week treatment of ZF rats (body weight, UGE, calorimetry); format: in vivo; conditions: ZF rat, 3 mg/kg, 3 weeks
Source text: as §1
(§2) Body weight, food intake, and BG levels were monitored weekly. UGE and indirect calorimetry were conducted in the fourth week of treatment during the compound treatment. […] Body weight, food intake, and BG were measured weekly during the 19-day treatment period. UGE, body fat, and indirect calorimetric studies were conducted at the end of this study.

DIO mice = assay: 4-week treatment of DIO mice (body weight, UGE, calorimetry); format: in vivo; conditions: DIO mouse, 30 mg/kg, 4 weeks
Source text: as §1, §2

Rat SGLT2 = Rat SGLT2 (Rattus norvegicus, UniProt P53792); assay: cell-based
Chain of Rat SGLT2 (P53792 whole entry): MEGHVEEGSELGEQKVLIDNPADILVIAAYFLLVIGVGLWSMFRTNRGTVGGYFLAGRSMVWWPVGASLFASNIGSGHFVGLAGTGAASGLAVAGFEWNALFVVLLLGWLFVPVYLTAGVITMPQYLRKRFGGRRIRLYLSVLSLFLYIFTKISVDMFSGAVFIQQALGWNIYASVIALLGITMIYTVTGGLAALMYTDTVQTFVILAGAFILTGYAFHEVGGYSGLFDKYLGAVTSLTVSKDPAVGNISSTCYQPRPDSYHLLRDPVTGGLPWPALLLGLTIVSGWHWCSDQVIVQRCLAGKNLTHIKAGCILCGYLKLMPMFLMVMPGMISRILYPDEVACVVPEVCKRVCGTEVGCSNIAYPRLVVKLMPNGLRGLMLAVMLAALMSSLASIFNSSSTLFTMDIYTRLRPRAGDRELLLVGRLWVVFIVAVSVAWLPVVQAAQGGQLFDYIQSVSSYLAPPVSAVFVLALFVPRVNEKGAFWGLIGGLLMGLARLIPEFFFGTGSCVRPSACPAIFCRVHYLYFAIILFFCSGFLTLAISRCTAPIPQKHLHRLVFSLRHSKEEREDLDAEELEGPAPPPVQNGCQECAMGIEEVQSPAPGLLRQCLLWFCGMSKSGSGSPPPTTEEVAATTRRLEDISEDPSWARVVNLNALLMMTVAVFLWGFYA

Compound: Cc1ccc([C@@H]2O[C@H](CO)[C@@H](O)[C@H](O)[C@H]2O)cc1Cc1ccc(-c2ccc(F)cc2)s1 [canagliflozin, Canagliflozin]
- IC50 (Rat SGLT1): 571 nM
- inhibition at 10 µM ([1]; 10 µM, L6 myoblasts, read-out: inhibition of facilitative GLUT-mediated 3H-2-DG uptake): < 50%
- IC50 ([1]; 3H-2-DG uptake, rat L6 myoblast cells): > 10000 nM
- reduction of BG levels compared with vehicle-treated mice (db/db mice; single dose 1 mg/kg): 22%
- BG level (db/db mice; single dose 1 mg/kg): 208 ± 9.6 mg/dL
- reduction of BG levels compared with vehicle-treated mice (db/db mice; single dose 10 mg/kg): 36%
- BG level (db/db mice; single dose 10 mg/kg): 118 ± 9.0 mg/dL
- Feeding efficiency index (body weight gain/food intake) (ZF rats; vehicle 0.30±0.01): 0.25±0.01
- RER (ZF rats; vehicle 1.10±0.01): 1.06±0.01 ^b
- UGE (ZF rats; vehicle 1.8±1.1): 29.10±3.5 ^b mg/4 h
- Epididymal fat weight (ZF rats; vehicle 10.8±0.3): 9.5±0.3 ^b g
- Liver weight (ZF rats; vehicle 28.5±0.8): 25.0±1.4 ^b g
- Fed BG (ZF rats; vehicle 149.6±22.9): 118.9±4.3 ^b mg/dl
- Body weight (ZF rats; vehicle 437.9±11.5): 408.1±7.7 ^b g
- Total food intake (ZF rats; vehicle 645.3±21.2): 647.9 ± 18.9 g
- Oxygen consumption (VO2) (ZF rats; vehicle 1560±28): 26.37 ± 0.55 mL/min/kg
- RER (DIO mice; vehicle 0.79±0.01): 0.77±0.01 ^b
- UGE (DIO mice; vehicle 2.4±0.6): 26.1±5.2 ^b mg/4 h
- Body weight (DIO mice; vehicle 53.2±0.6): 49.6±1.0 ^b g
- Fed BG (DIO mice; vehicle 199±16): 105±13 ^b mg/dl
- Oxygen consumption (VO2) (DIO mice; vehicle 2364±29): 40.32 ± 1.82 mL/min/kg
- IC50 (Rat SGLT2): 3.7 nM

— article PMC3280264 (PLoS ONE, 2012)
